Assay results from patent US12545677B2, “Compounds useful as factor XIa inhibitors” (JANSSEN PHARMACEUTICA NV, priority 2020, dated 2026).

Assays:
human hepatocytes = experiment: In vitro metabolism in human cryopreserved hepatocytes; assay type: in vitro ADME
Experimental: In Vitro Metabolism of in Human Cryopreserved Hepatocytes
The human hepatocytes used for in vitro metabolism of the compound of formula (I-A) were purchased from Bioreclamation IVT (Westbury, NY); cryopreserved human hepatocytes (lot number: UYG).
Cryopreserved hepatocytes were rapidly thawed […] vials were placed in a 37° C. water bath for approximately 90 sec, then immediately added to pre-warmed hepatocyte thawing media. The cells were resuspended within the media and then centrifuged at 700×g for 7 minutes at room temperature.
The supernatant was discarded, and the cells were resuspended in 2 mL of Krebs-Henseleit buffer containing 12.5 mM HEPES pH 7.4 (KHB). Cell viability and yield were determined by Trypan Blue exclusion. The hepatocytes were then diluted in KHB to a cell concentration of 2×10^6 cells/mL (500 μL/well in 10 mL glass tubes). The tubes were placed on a rotary shaker in a humidifier incubator supplied with 5% CO2 and allowed 15 minutes acclimation at 37° C. prior to use. The compound of formula (I-A) or positive control, diclofenac (10 μM), in KHB was then added to the hepatocytes to achieve a final concentration of 10 μM and cell concentration of 1×10^6 cells/mL (1000 μL final incubation volume). Cells were incubated for zero or 3 hours. At the end of the incubation period, the cells were quenched with 6-volumes of ice-cold acetonitrile containing 0.02% formic acid, vortexed and sonicated (5 min). Precipitated proteins were pelleted by centrifugation (3000 rpm, 10 minutes, 4° C.) and the supernatant was transferred to borosilicate tubes and evaporated to dryness under a gentle stream of nitrogen.
The resulting residue after evaporation was reconstituted in 250 μL of water:acetonitrile (9:1 v/v) containing 0.01% formic acid with sonication and vortexing to aid solubilization of drug-derived materials prior to filtration using 0.45μ nylon filter at 10,000×g at room temperature for 10 minutes. The filtrate was transferred to a 96-well plate for liquid chromatography/ultraviolet/mass spectrometry (LC-UV/MS) analysis.
LC/UV/MS (Liquid Chromatography/Ultraviolet/Mass Spectrometry)
LTQ/Orbitrap (Thermo Scientific, Inc., Bremen, Germany) was carried out by data-dependent accurate mass measurements at resolving powers of 15,000 for full scan MS and 7,500 for MS^2 (also known as MS/MS or tandem mass spec) under single ion locked mass mode.
Quantification of the unchanged drug and its metabolites was carried out by integration of the individual chromatographically separated UV peaks and provided the percentage of total peak area.

Factor XIa = Factor XIa (Homo sapiens, UniProt P03951); experiment: Factor XIa inhibition assay using fluorophore-quencher pair peptide substrate; assay type: biochemical
Chain of Factor XIa (P03951 388-625 limits assumed): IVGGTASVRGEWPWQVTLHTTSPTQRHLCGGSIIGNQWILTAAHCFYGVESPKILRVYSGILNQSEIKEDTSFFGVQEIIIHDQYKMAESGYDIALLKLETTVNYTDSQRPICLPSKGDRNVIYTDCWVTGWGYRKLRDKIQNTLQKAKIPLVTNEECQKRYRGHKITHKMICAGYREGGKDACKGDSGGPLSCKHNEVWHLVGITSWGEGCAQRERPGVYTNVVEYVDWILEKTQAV
Chain of Factor XIa (P03951 19-387 partner limits assumed): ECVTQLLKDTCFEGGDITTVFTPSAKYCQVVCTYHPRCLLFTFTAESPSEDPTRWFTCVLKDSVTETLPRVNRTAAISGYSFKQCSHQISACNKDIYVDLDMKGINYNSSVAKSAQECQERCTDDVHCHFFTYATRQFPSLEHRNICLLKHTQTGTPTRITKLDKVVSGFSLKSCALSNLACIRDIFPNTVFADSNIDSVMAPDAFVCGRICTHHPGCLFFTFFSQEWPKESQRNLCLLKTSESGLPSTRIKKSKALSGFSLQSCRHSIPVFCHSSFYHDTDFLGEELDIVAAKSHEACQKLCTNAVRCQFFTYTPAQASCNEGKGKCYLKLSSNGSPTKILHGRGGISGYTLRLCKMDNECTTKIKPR
Excerpt: Biological Example 1: Factor XIa Inhibition Assay
Using Fluorophore-quencher Pair Peptide Substrate
A fluorescence intensity-based assay was used to monitor inhibition of Factor XIa. The peptide substrate, 5Fam-[…]-K5Tamra (purchased from New England Peptide) was chosen based on the […]. Conversion of zymogen FIX to its activated form, FIXa, occurs by proteolytic cleavage by FXIa at two sites, Arg146 and Arg180. The custom peptide used in this assay was based on the Arg146 cleavage site. The peptide substrate was designed with a fluorophore-quencher pair, where the fluorescence is quenched until FXIa cleaves the 8-mer peptide after the Arg residue.
Factor XIa FLINT assay was used with the following 5Fam-[…]-K5Tamra assay buffer: 50 mM Tris, pH 7.5, 100 mM NaCl, 5 mM CaCl2, 0.1 mg/mL BSA, 0.03% CHAPS was used. Assay buffer was prepared by mixing all ingredients fresh. 2×5Fam-[…]-K5Tamra peptide substrate was first prepared in 100% DMSO, then diluted 10 mM to 3 mM in 100% DMSO. Assay buffer was then added directly to the 3 mM stock of substrate to prepare the 30 μM 2× working concentration (15 μM final concentration). The 2× Factor XIa stock solution was prepared by diluting 6.562 μM stock in 1× assay buffer for a 200 pM working stock solution (100 pM final concentration).
Test compound(s) were run in an 11-point, 3-fold serial dilution with a final top compound concentration of […]. Final DMSO in assay was 2% DMSO. FXIa and compound were pre-incubated for 30 minutes and substrate was then added to initiate the reaction. The assay was linear using 100 pM FXIa greater than 30 minutes. More specifically, the assay was run as follows: • 100 nL of 1 mM test compound was dispensed into a black 384-well non-binding Greiner BioOne 784900 plate for 10 μM final concentration with 1% DMSO final concentration; • 5 μL of 1× assay buffer was dispensed to column 24 (low control) and 5 μL 2× Factor XIa solution was dispensed to columns 1-23 (column 23 high control); • the plate was centrifuged with a “cover” plate at 500 rpm for 1 min • the plate was pre-incubated for 30 minutes at room temperature with plate covered; • 5 μL of 2× 5Fam-[…]-K5Tamra peptide substrate was dispensed into the entire plate, columns 1-24; • the plate was centrifuged with a cover plate at 500 rpm for 1 min; • the plate was read kinetically monitoring fluorescence intensity on the BMG PHERAStar at room temperature, using fluorescence module F1 485 mm/520 mm.
Percent inhibition (IC50) curves were generated per compound tested, and data was analyzed using a 4-parameter logistic fit using GeneData Screener. […]

Row | SMILES | identified as metabolite of the compound of formula (I-A) (human hepatocytes; human hepatocytes, carboxylic acid metabolite) | IC50 (Factor XIa) | turnover in human hepatocytes (human hepatocytes; 10 μM, 1×10^6 cells/mL, 3 hours) | major metabolic softspot (human hepatocytes; human hepatocytes) | metabolites generated from the incubation (human hepatocytes; human hepatocytes, 10 μM, 3 hours)
1 | O=C(O)c1nccc(-c2cnc([C@@H]3CC[C@@H]4CC(c5c(-n6cnnn6)ccc(Cl)c5F)=CC(=O)N43)[nH]2)c1F [Compound of formula (II-A), 4-(2-((3S,8aR)-7-(3-chloro-2-fluoro-6-(1H-tetrazol-1-yl)phenyl)-5-oxo-1,2,3,5,8,8a-hexahydroindolizin-3-yl)-1H-imidazol-5-yl)-3-fluoropicolinic acid] | a metabolite in human hepatocytes | 0.3 nM |  |  | 
2 | O=C1C=C(c2c(-n3cnnn3)ccc(Cl)c2F)C[C@H]2CC[C@@H](c3ncc(-c4ccnc(CO)c4F)[nH]3)N12 [Compound of formula (I-A), (3S,8aR)-7-(3-Chloro-2-fluoro-6-(1H-tetrazol-1-yl)phenyl)-3-(5-(3-fluoro-2-(hydroxymethyl)pyridin-4-yl)-1H-imidazol-2-yl)-2,3,8,8a-tetrahydroindolizin-5(1H)-one] |  |  | low turnover | (3-fluoropyridin-2-yl) methanol moiety | three oxidative and two glucuronide metabolites
